Measurements as given in patent US20080207632A1, “PROTEIN KINASE INHIBITORS” (SUPERGEN, INC., priority 2006, published 2008).
Where two headings read alike, the source gives them in different places.

How the values were obtained:
[1] = tested on: MDA-MB-231 breast carcinoma cells; assay: cell proliferation assay (Cell-Titer-Glo), MDA-MB-231; type: cell-based; conditions: Homo sapiens
Description: Cell culture-based assays can be used to evaluate the ability of compounds of the invention to inhibit one or more cellular activities, such as cancer cell growth and/or survival. Numerous cancer cell lines can be obtained from the American Type Culture Collection (ATCC) and other sources. Briefly, cells are seeded into 96-well, tissue-culture treated, opaque white plates (Thermo Electron, Vantaa, Finland), at between 5000 and 10000 cells per well, depending on the speed of cell proliferation, in 100 μl of appropriate growth medium (determined by the ATCC). Cells are then exposed to the appropriate concentration of drug or an equal amount of DMSO (drug diluent) and allowed to grow in its presence for 96 hours. Following this, 100 μl of Cell-Titer-Glo reagent (Promega, Inc., Madison, Wis.) is added to each well. Plates are then shaken for 2 minutes at room temperature to allow for cell lysis and incubated for 10 minutes to stabilize the luminescent signal. Similar to the Kinase-Glo assay reagent from Promega, this reagent contains both luciferase enzyme and its substrate luciferin. Luciferase, activated by ATP in the cell lysate, catalyzes the conversion of luciferin to oxyluciferin, a reaction which produces light. The amount of light produced is proportionate to the amount of ATP in the cell lysate, which is itself proportional to cell number and gives an index of cellular proliferation.
Compound 1-1 and Compound 2-11 were tested in a cell proliferation assay to determine potency in a cell-based assay format. Briefly, MDA-MB-231 breast carcinoma cells were inoculated onto 96-well plates and incubated in the presence of compounds for 96 hours. Following incubation, cells were lysed and ATP content used as a surrogate for cell number, using the Cell-Titer-Glo Luminescent Cell Viability Assay Kit (Promega Corp.). IC50 values, representing the concentration required to reduce cell number to 50% of untreated controls, were determined to be 20 uM for Compound 1-1 and 10 uM for Compound 2-11.

Axl kinase = biological target: T1, Axl kinase (Homo sapiens, UniProt P30530); assay: Axl kinase inhibition assay (Kinase-Glo); type: biochemical; conditions: 3 μM ATP
T1 construct: purchased BPS Bioscience Inc, San Diego Calif
T1 sequence (P30530 26-894): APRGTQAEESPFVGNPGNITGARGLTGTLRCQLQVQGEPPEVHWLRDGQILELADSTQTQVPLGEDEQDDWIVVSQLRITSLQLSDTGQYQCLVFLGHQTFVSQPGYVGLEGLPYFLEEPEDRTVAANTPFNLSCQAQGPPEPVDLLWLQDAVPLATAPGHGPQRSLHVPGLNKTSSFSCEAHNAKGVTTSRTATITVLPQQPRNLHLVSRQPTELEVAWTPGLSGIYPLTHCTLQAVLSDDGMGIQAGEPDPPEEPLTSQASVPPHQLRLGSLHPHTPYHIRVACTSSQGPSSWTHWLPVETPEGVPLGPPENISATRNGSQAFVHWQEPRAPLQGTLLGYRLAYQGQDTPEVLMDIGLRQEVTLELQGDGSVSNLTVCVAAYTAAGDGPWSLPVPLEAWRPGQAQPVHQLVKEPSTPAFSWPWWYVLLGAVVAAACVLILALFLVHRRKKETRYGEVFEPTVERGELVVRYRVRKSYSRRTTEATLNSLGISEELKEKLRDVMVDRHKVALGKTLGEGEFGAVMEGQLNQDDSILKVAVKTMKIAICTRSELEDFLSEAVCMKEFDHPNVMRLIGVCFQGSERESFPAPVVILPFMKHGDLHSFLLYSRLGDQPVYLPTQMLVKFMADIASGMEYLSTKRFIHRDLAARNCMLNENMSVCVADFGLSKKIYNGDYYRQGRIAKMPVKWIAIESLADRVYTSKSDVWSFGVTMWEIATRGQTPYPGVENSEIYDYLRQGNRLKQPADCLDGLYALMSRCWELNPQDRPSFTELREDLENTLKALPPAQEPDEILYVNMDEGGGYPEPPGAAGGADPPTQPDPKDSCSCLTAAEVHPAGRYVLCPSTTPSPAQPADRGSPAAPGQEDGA
Description: One illustrative manner in which Axl kinase activity can be determined is by quantifying the phosphorylation of a known Axl substrate in an in vitro assay. In this assay kinase activity is determined by quantifying the amount of ATP remaining in solution following the kinase reaction by measuring the relative light units (RLU) produced by luciferase using a luminometer. Percent activity was determined for individual compounds by comparing luminometer readings of drug-treated reactions to controls containing no drug (RLUNO Inhib) and no […] enzyme (RLUNO Kinase) in the following equation: […]
In a 50 μl reaction, 200 ng/μl of Axl kinase (BPS Bioscience Inc, San Diego Calif.) was incubated at 30° C. for two hours with shaking (360 rpm) with 10 μg/ml Poly (Glu:Tyr) substrate (BPS Bioscience Inc, Calif.), 3 μM ATP. (Invitrogen, Carlsbad, Calif.) and kinase reaction buffer (40 mM MOPS, 75 mM MgCl2 and 0.1 mM EDTA). The value of 3 μM ATP was determined to be the Km (concentration at which the enzyme is working at 50% maximum velocity) for the amount of enzyme used in this assay. […] Kinase activity is determined by quantifying the amount of ATP remaining in solution following the kinase reaction by measuring the relative light units (RLU) produced by luciferase using a luminometer (Thermo Electron Corporation, Vantaa, Finland).

[2] = tested on: HT-29 human colon cancer cells; assay: HT-29 xenograft study in mice (Example 19); type: in vivo; conditions: 25 mg/kg intraperitoneally, q.d.x 5 for two weeks
Description: In order to evaluate the effectiveness of compound 1-1 against tumor cells in a living system, a xenograft study was performed in mice. 1×10^7 HT-29 human colon cancer cells were injected subcutaneously into 16 Nu/Nu athymic nude mice (Charles River Laboratories, Wilmington, Mass.). Tumor volume was measured according to the formula ((Width)^2*Length)/2. Tumors were allowed to grow to approximately 100 mm^3 in volume (Day 0), at which point mice were randomized to two groups: Eight mice were treated with 25 mg/kg compound 1-1, while the other eight were given an equal volume of drug vehicle. For this study, the drug vehicle used was 60% propylene glycol, 30% polyethylene glycol 300, 10% ethanol with 150 mg/mL 2-hydroxypropyl-beta-cyclodextrin. Each mouse received 0.1 mL of drug or vehicle intraperitoneally on a q.d.x 5 schedule for two weeks, with two days rest between cycles.

MiaPaCa-2 (pancreas) = assay: in vitro cytotoxicity assay (Cell-Titer-Glo), MiaPaCa-2; type: cell-based; conditions: Homo sapiens, MIA PaCa-2; Table 10; 96 hours; read-out: IC50 MiaPaCa-2 (inhibit cell growth to 50% of untreated)
[3] = tested on: A549 non-small cell lung carcinoma cells; assay: cell cycle distribution by DNA content flow cytometry (Guava); type: cell-based; conditions: synchronized A549 cells, 24 hours post-release
Description: It is expected that a specific Aurora-2 kinase inhibitor would cause only brief cell cycle arrest at G2/M, which should be immediately followed by apoptosis. This is in contrast to Aurora-1 kinase inhibitors, which tend to cause a prolonged cell cycle arrest. compound 2-3 was examined for its ability to cause cell cycle arrest and apoptosis. Briefly, A549 non-small cell lung carcinoma cells were plated at 50000 cells/mL in a 24-well plate. Cells were synchronized with 4 μg/mL Aphidicolin for 16 hours, followed by a 24 hour synchronization with 1 μg/mL Hoechst 33342, to arrest the cells at the G2/M boundary. Cells were then released into regular medium with or without SGI-498 and allowed to grow for an additional 24 hours. This synchronization was necessary for visualization of the brief G2/M arrest caused by compound 2-3. Following this incubation, cells were stained for DNA content analysis using the Guava Cell Cycle Assay Kit (Guava Technologies, Hayward Calif.), according to manufacturer instructions. Cells were then analyzed with the Guava EasyCyte benchtop flow cytometer using the Guava Cell Cycle analysis protocol. Cells were gated according to DNA content into G0/G1, S, G2/M or apoptotic (sub-G1) categories.

Row | Structure (SMILES) | IC50 ([1]; Example 65, 96 hours, read-out: IC50 (reduce cell number to 50% of untreated controls)) | IC50 ([1]; Table 10, 96 hours, read-out: IC50 MDA-MB-231 (inhibit cell growth to 50% of untreated)) | IC50 (Axl kinase) | toxicity through the duration of the study [2] | tumor growth inhibition in vivo [2] | IC50 (MiaPaCa-2 (pancreas)) | cell cycle arrest and apoptosis [3]
1 | CC(=O)NS(=O)(=O)c1ccc(NC(=S)N2CCN(c3ncnc4[nH]c5cc(C(F)(F)F)c(Cl)cc5c34)CC2)cc1 [Compound 1-1, 4-(6-Chloro-7-trifluoromethyl-9H-pyrimido[4,5-b]indol-4-yl)-piperazine-1-carbothioic acid (4-acetylsulfamoyl-phenyl)-amide] | 20 µM | 20.2 µM | 9.8 µM | No noticeable toxicity | effective for inhibiting tumor growth in vivo | 66.6 µM | –
2 | COc1cc2[nH]c3ncnc(N4CCN(C(=S)Nc5ccc(S(=O)(=O)Nc6ccc(F)cc6)cc5)CC4)c3c2cc1OC [Compound 2-3, 4-(6,7-dimethoxy-9H-pyrimido[4,5-b]indol-4-yl)-N-(4-(N-(4-fluorophenyl)sulfamoyl)phenyl)piperazine-1-carbothioamide] | – | – | – | – | – | – | Brief Cell Cycle Arrest in G2/M. Followed by Apoptosis
